Experiments:
[1] = biological target: T1, c-kit kinase (Homo sapiens, UniProt P10721); experiment: c-Kit biochemical assay, AlphaScreen, 10 μM ATP; settings: c-kit biochemical inhibitory activity; read-out: Biochemical activity (IC50 μM) Kit
T1 construct: The c-kit (or kinase domain thereof) is an active kinase in AlphaScreen; poly-Histidine tag (in-house protein only) (cleaved yes); host or cells: E. coli BL21(DE3)RIL, co-expressed with PTP1B
Method in brief: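 His-tagged c-Kit expressed in E. coli with co-expressed PTP1B (dephosphorylated), tag removed; 0.1 ng per reaction with biotinylated-peptide substrate in 50 mM HEPES pH 7.2, 5 mM MgCl2, 5 mM MnCl2, 5% DMSO, 10 μM ATP, 1 h at room temperature. Phosphorylation detected by AlphaScreen (streptavidin donor, PY20 acceptor beads); IC50 from 8-point 1:3 dilution series.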

[2] = biological target: T2, c-kit mutant D816V (Homo sapiens, UniProt P10721, D816V/DEL694-753); experiment: c-Kit mutant D816V biochemical assay, AlphaScreen; settings: c-kit D816V biochemical inhibitory activity; read-out: Biochemical activity (IC50 μM) Kit D816V
T2 construct: residues 551-934, kinase insertion domain residues 694-753 deleted; 6x-histidine (N); made in house; host or cells: E. coli Arctic Express (DE3) RIL (Stratagene)
Method in brief: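 Eight-point, threefold compound series incubated 30 min at room temperature with E. coli-produced D816V kinase, 10 μM ATP, Mg2+/Mn2+ HEPES buffer pH 7.2 and 5% DMSO. After EDTA stop, streptavidin and anti-phosphotyrosine (PY20) AlphaScreen beads gave the read-out, and IC50 was fitted from the concentration–signal curve.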

T2 sequence (P10721 with tags, fused parts or gaps DEL694-753/D816V): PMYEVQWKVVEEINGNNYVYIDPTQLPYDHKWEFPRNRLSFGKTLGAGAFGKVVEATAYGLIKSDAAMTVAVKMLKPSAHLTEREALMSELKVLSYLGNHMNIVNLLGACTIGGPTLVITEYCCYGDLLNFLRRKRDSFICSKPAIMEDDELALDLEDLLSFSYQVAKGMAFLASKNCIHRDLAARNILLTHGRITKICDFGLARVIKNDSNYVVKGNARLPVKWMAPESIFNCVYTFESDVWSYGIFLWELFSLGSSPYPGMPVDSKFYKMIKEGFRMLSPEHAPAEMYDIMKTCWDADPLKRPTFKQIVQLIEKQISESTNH
T1 sequence (P10721 26-976): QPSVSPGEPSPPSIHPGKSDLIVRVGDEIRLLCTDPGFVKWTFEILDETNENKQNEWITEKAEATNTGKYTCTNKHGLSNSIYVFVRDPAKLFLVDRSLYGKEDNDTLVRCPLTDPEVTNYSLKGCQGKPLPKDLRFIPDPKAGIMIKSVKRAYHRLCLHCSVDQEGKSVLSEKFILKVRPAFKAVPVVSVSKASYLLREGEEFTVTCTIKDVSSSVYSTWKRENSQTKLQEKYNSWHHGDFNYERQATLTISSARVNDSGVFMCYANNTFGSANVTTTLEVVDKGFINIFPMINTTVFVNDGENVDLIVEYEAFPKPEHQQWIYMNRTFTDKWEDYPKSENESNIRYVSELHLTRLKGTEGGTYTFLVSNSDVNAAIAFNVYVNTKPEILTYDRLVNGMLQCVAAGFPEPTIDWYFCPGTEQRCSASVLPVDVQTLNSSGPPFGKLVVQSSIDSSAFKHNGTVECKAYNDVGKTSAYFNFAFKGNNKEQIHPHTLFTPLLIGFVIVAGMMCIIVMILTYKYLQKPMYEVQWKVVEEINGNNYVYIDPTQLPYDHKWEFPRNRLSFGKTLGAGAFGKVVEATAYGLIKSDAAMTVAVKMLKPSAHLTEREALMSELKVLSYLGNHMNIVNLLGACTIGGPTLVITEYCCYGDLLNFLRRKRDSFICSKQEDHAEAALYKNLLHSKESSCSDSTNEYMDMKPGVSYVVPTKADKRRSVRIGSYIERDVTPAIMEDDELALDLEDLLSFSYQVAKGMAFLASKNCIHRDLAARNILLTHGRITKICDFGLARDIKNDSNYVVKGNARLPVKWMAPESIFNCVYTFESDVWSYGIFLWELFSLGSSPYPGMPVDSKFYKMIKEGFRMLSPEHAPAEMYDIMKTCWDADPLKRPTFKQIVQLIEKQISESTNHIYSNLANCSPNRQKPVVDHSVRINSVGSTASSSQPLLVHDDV

Row | SMILES | IC50 [1] [µM] | IC50 [2] [µM]
1 | C[C@H](NC(=O)N1CCN(c2ncnc3[nH]c(-c4ccc(F)cc4)cc23)CC1(C)C)c1cccc(F)c1 [P-0005, N-[(1S)-1-(3-fluorophenyl)ethyl]-4-[6-(4-fluorophenyl)-7H-pyrrolo[2,3-d]pyrimidin-4-yl]-2,2-dimethyl-piperazine-1-carboxamide] | 1 to 10 | 0.0001 to 1
2 | C[C@H](NC(=O)N1CCN(c2ncnc3[nH]c(-c4ccc(F)cc4)cc23)CC1(C)C)c1cccc(OC(F)F)c1 [P-0006, N-[(1S)-1-[3-(difluoromethoxy)phenyl]ethyl]-4-[6-(4-fluorophenyl)-7H-pyrrolo[2,3-d]pyrimidin-4-yl]-2,2-dimethyl-piperazine-1-carboxamide] | 1 to 10 | 0.0001 to 1
3 | COc1cc2ncnc(-c3ccc(NS(C)(=O)=O)cc3F)c2cc1OC [P-0271, N-[4-(6,7-dimethoxyquinazolin-4-yl)-3-fluoro-phenyl]methanesulfonamide] | 1 to 10 | 0.0001 to 1
4 | O=S(=O)(Nc1ccc(-c2ncnc3[nH]c(-c4ccc(F)cc4)cc23)cc1F)C1CC1 [P-0410, N-[2-fluoro-4-[6-(4-fluorophenyl)-7H-pyrrolo[2,3-d]pyrimidin-4-yl]phenyl]cyclopropanesulfonamide] | 1 to 10 | 0.0001 to 1
5 | CCOc1ccc(NC(=O)N2CCN(c3ncnc4[nH]c(-c5ccc(Cl)cc5)cc34)CC2)cc1 [P-0214, 4-[6-(4-chlorophenyl)-7H-pyrrolo[2,3-d]pyrimidin-4-yl]-N-(4-ethoxyphenyl)piperazine-1-carboxamide] | 0.0001 to 1 | 0.0001 to 1
6 | O=C(Nc1cccc(Cl)c1)N1CCN(c2ncnc3[nH]ccc23)CC1 [P-0168, N-(3-chlorophenyl)-4-(7H-pyrrolo[2,3-d]pyrimidin-4-yl)piperazine-1-carboxamide] | 10 to 200 | 10 to 200
7 | COc1ccc([C@H](C)NC(=O)N2CCN(c3ncnc4cc(-c5ccc(F)cc5)sc34)CC2(C)C)cc1 [P-0576, 4-[6-(4-fluorophenyl)thieno[3,2-d]pyrimidin-4-yl]-N-[(1S)-1-(4-methoxyphenyl)ethyl]-2,2-dimethyl-piperazine-1-carboxamide] | 10 to 200 | 0.0001 to 1
8 | Cc1ccc(S(=O)(=O)Nc2ccc(-c3ncnc4[nH]c(C)c(C)c34)cc2)cc1 [P-0449, N-[4-(5,6-dimethyl-7H-pyrrolo[2,3-d]pyrimidin-4-yl)phenyl]-4-methyl-benzenesulfonamide] | 1 to 10 | 1 to 10
9 | Cc1cc2c(-c3ccc(NS(=O)(=O)c4ccc(Cl)s4)cc3)ncnc2[nH]1 [P-0323, 5-chloro-N-[4-(6-methyl-7H-pyrrolo[2,3-d]pyrimidin-4-yl)phenyl]thiophene-2-sulfonamide] | 1 to 10 | 1 to 10
10 | C#Cc1cc2c(N3CCN(C(=O)Nc4ccc(OCC)cc4)CC3)ncnc2[nH]1 [P-0089, N-(4-ethoxyphenyl)-4-(6-ethynyl-7H-pyrrolo[2,3-d]pyrimidin-4-yl)piperazine-1-carboxamide] | 1 to 10 | 10 to 200
11 | C[C@H](NC(=O)N1CCN(c2ncnc3[nH]c(-c4ccc(F)cc4)cc23)CC1(C)C)c1ccc(Cl)cc1 [P-0700, N-[(1S)-1-(4-chlorophenyl)ethyl]-4-[6-(4-fluorophenyl)-7H-pyrrolo[2,3-d]pyrimidin-4-yl]-2,2-dimethyl-piperazine-1-carboxamide] | 1 to 10 | 0.0001 to 1
12 | Cc1ccc(-c2cc3c(C4=CCC(NS(=O)(=O)c5ccc(OC(F)(F)F)cc5)CC4)ncnc3[nH]2)cn1 (stereo not shown) [P-0281, N-[4-[6-(6-methyl-3-pyridyl)-7H-pyrrolo[2,3-d]pyrimidin-4-yl]cyclohex-3-en-1-yl]-4-(trifluoromethoxy)benzenesulfonamide] | 10 to 200 | 0.0001 to 1
13 | COc1ccc([C@H](C)NC(=O)N2CCN(c3ncnc4[nH]c(-c5ccc(F)cc5)cc34)C[C@H]2C)cc1 [P-0018, (2R)-4-[6-(4-fluorophenyl)-7H-pyrrolo[2,3-d]pyrimidin-4-yl]-N-[(1S)-1-(4-methoxyphenyl)ethyl]-2-methyl-piperazine-1-carboxamide] | 1 to 10 | 0.0001 to 1
14 | C[C@@H]1CN(c2ncnc3[nH]c(-c4ccncc4)cc23)CCN1C(=O)Nc1ccc(N(C)C)cc1 [P-0066, (2R)-N-(4-dimethylaminophenyl)-2-methyl-4-[6-(4-pyridyl)-7H-pyrrolo[2,3-d]pyrimidin-4-yl]piperazine-1-carboxamide] | 1 to 10 | 0.0001 to 1
15 | CCCNC(=O)N1CCN(c2ncnc3[nH]c(-c4ccccc4)cc23)CC1 [P-0236, 4-(6-phenyl-7H-pyrrolo[2,3-d]pyrimidin-4-yl)-N-propyl-piperazine-1-carboxamide] | 1 to 10 | 10 to 200
16 | O=C(NCc1ccc(F)cc1)N1CCN(c2ncnc3ccsc23)CC1 [P-0638, N-[(4-fluorophenyl)methyl]-4-thieno[3,2-d]pyrimidin-4-yl-piperazine-1-carboxamide] | 10 to 200 | 10 to 200
17 | Cc1nn(C)cc1-c1cc2c(N3CCN(C(=O)N[C@@H](C)c4ccc(F)cc4)C(C)(C)C3)ncnc2[nH]1 [P-0721, 4-[6-(1,3-dimethylpyrazol-4-yl)-7H-pyrrolo[2,3-d]pyrimidin-4-yl]-N-[(1S)-1-(4-fluorophenyl)ethyl]-2,2-dimethyl-piperazine-1-carboxamide] | 0.0001 to 1 | 0.0001 to 1
18 | Cc1ccc(S(=O)(=O)Nc2ccc(-c3ncnc4cc(C)sc34)cc2)cc1 [P-0623, 4-methyl-N-[4-(6-methylthieno[3,2-d]pyrimidin-4-yl)phenyl]benzenesulfonamide] | 1 to 10 | 0.0001 to 1
19 | O=S(=O)(Nc1ccc(-c2ncnc3[nH]c(-c4ccc(F)cc4F)cc23)c(F)c1)C1CC1 [P-0340, N-[4-[6-(2,4-difluorophenyl)-7H-pyrrolo[2,3-d]pyrimidin-4-yl]-3-fluoro-phenyl]cyclopropanesulfonamide] | 10 to 200 | 0.0001 to 1
20 | CN(C)c1ccc(NC(=O)N2CCN(c3ncnc4[nH]c(C#CC5CC5)cc34)CC2)cc1 [P-0052, 4-[6-(2-cyclopropylethynyl)-7H-pyrrolo[2,3-d]pyrimidin-4-yl]-N-(4-dimethylaminophenyl)piperazine-1-carboxamide] | 1 to 10 | 10 to 200
21 | COc1cc(-c2cc3c(N4CCN(C(=O)N[C@@H](C)c5ccc(Cl)cc5)C(C)(C)C4)ncnc3[nH]2)ccn1 [P-0710, N-[(1S)-1-(4-chlorophenyl)ethyl]-4-[6-(2-methoxy-4-pyridyl)-7H-pyrrolo[2,3-d]pyrimidin-4-yl]-2,2-dimethyl-piperazine-1-carboxamide] | 10 to 200 | 0.0001 to 1
22 | Cc1cc2c(-c3ccc(NS(=O)(=O)c4ccc(C(F)(F)F)cc4)cc3)ncnc2[nH]1 [P-0317, N-[4-(6-methyl-7H-pyrrolo[2,3-d]pyrimidin-4-yl)phenyl]-4-(trifluoromethyl)benzenesulfonamide] | 10 to 200 | 0.0001 to 1
23 | Cc1cc2c(-c3ccc(NS(=O)(=O)c4cc(Cl)c(Cl)s4)cc3)ncnc2[nH]1 [P-0299, 4,5-dichloro-N-[4-(6-methyl-7H-pyrrolo[2,3-d]pyrimidin-4-yl)phenyl]thiophene-2-sulfonamide] | 1 to 10 | 1 to 10
24 | C[C@H](NC(=O)N1CCN(c2ncnc3[nH]c(-c4cnn(C)c4)cc23)C[C@H]1C)c1ccc(Cl)cc1 [P-0717, (2R)-N-[(1S)-1-(4-chlorophenyl)ethyl]-2-methyl-4-[6-(1-methylpyrazol-4-yl)-7H-pyrrolo[2,3-d]pyrimidin-4-yl]piperazine-1-carboxamide] | 1 to 10 | 0.0001 to 1
25 | O=S(=O)(NC1CC1)c1cccc(-c2ncnc3[nH]c(-c4ccc(F)cc4)cc23)c1 [P-0429, N-cyclopropyl-3-[6-(4-fluorophenyl)-7H-pyrrolo[2,3-d]pyrimidin-4-yl]benzenesulfonamide] | 0.0001 to 1 | 0.0001 to 1
26 | O=C(Nc1ccc(Cl)cc1)N1CCN(c2ncnc3[nH]ccc23)CC1 [P-0171, N-(4-chlorophenyl)-4-(7H-pyrrolo[2,3-d]pyrimidin-4-yl)piperazine-1-carboxamide] | 10 to 200 | 10 to 200
27 | O=C(N1CC=C(c2cc3ncnc(-c4ccc(NS(=O)(=O)c5ccc(F)cc5)cc4)c3s2)CC1)N1CCOCC1 [P-0561, 4-fluoro-N-[4-[6-[1-(morpholine-4-carbonyl)-3,6-dihydro-2H-pyridin-4-yl]thieno[3,2-d]pyrimidin-4-yl]phenyl]benzenesulfonamide] | 0.0001 to 1 | 0.0001 to 1
28 | O=C(Nc1ccc(OC(F)(F)F)cc1)N1CCN(c2ncnc3[nH]c(-c4ccccc4F)cc23)CC1 [P-0067, 4-[6-(2-fluorophenyl)-7H-pyrrolo[2,3-d]pyrimidin-4-yl]-N-[4-(trifluoromethoxy)phenyl]piperazine-1-carboxamide] | 0.0001 to 1 | 1 to 10
29 | O=S(=O)(Nc1ccc(-c2ncnc3[nH]c(-c4ccc(F)cc4)cc23)c(F)c1)C1CC1 [P-0401, N-[3-fluoro-4-[6-(4-fluorophenyl)-7H-pyrrolo[2,3-d]pyrimidin-4-yl]phenyl]cyclopropanesulfonamide] | 10 to 200 | 0.0001 to 1
